Experimental data as given in patent publication US20140081017A1, “Histone Deacetylase Inhibitors for Enhancing Activity of Antifungal Agents” (METHYLGENE INC., priority 2012, published 2014).
In brackets after ≈: the same amount, converted by molar mass. Like-named read-outs stand apart in the source and are kept apart here.

What was measured:
C. glabrata = test: Checkerboard FIC assay in combination with fluconazole (MIC alone and in combination, FICI); format: cell-based, Candida glabrata; details: for FICI of combination resulting in fluconazole MIC of: 2 ug/mL / FICI of combination resulting in fluconazole MIC of: 4 ug/mL / FICI of combination resulting in fluconazole MIC of: 8 ug/mL: FICI calculated using a fluconazole MIC of 16 μg/mL; for FICI of combination resulting in fluconazole MIC of: 2 ug/mL (value in parenthesis) / FICI of combination resulting in fluconazole MIC of: 4 ug/mL (value in parenthesis) / FICI of combination resulting in fluconazole MIC of: 8 ug/mL (value in parenthesis): FICI using a fluconazole MIC of 128 μg/mL; for MIC: Nakaseomyces glabratus; for Multiple of compound MIC to synergize fluconazole MIC to 2 ug/mL / Multiple of compound MIC to synergize fluconazole MIC to 4 ug/mL / Multiple of compound MIC to synergize fluconazole MIC to 8 ug/mL: concentration in combination as multiple of the compound's MIC alone; for Multiple of compound MIC to synergize fluconazole MIC to 2 ug/mL: fluconazole MIC 2 ug/mL; for Multiple of compound MIC to synergize fluconazole MIC to 4 ug/mL: fluconazole MIC 4 ug/mL; for Multiple of compound MIC to synergize fluconazole MIC to 8 ug/mL: fluconazole MIC 8 ug/mL; for Concentration of Methylgene compound to synergize fluconazole MIC to 2 ug/mL / Concentration of Methylgene compound to synergize fluconazole MIC to 4 ug/mL / Concentration of Methylgene compound to synergize fluconazole MIC to 8 ug/mL: in combination with fluconazole; for Concentration of Methylgene compound to synergize fluconazole MIC to 2 ug/mL: fluconazole MIC lowered to 2 ug/mL; for Concentration of Methylgene compound to synergize fluconazole MIC to 4 ug/mL: fluconazole MIC lowered to 4 ug/mL; for Concentration of Methylgene compound to synergize fluconazole MIC to 8 ug/mL: fluconazole MIC lowered to 8 ug/mL
In short: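 A fluconazole synergy checkerboard was run against C. glabrata in MOPS-buffered RPMI (pH 7.0) for about 48 h at 35 °C. Each agent was diluted 2-fold, with one row and one column holding each agent alone for MIC determination. FICI was calculated from these MICs, using a 0.5 McFarland inoculum diluted 1:100 per CLSI.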

Candida glabrata = test: Minimal Inhibitory Concentration (MIC) assay, broth microdilution per CLSI; format: cell-based; details: Nakaseomyces glabratus, read-out: Minimum Inhibitory Concentrations against Yeast Isolates, Candida glabrata;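 further: two read times 24 hr and 48 hr of incubation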
In short: (§1)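 Steps: overnight yeast growth on Sabouraud dextrose agar at 35° C; 0.5 McFarland saline suspension diluted 1:100 in RPMI (0.165 M MOPS, pH 7.0); inoculation into twofold compound dilutions; incubation 24-48 hr at 35° C; MIC scored as lowest concentration without visible growth.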

Candida albicans = test: as above; format: cell-based; details: Candida albicans, read-out: Minimum Inhibitory Concentrations against Yeast Isolates, Candida albicans;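 further: two read times 24 hr and 48 hr of incubation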
In short: as §1

Candida parapsilosis = test: as above; format: cell-based; details: Lodderomyces parapsilosis, read-out: Minimum Inhibitory Concentrations against Yeast Isolates, Candida parapsilosis;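 further: two read times 24 hr and 48 hr of incubation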
In short: as §1

[1] = MIC of the example compound alone against C. glabrata in the checkerboard assay, approximately 48 hr, read-out: Methylgene MIC
[2] = test compound alone, C. glabrata, approx. 48 hr at 35° C., read-out: Compound MIC
[3] = 24 hr reading (first value of cell 24 hr/48 hr)
[4] = 48 hr reading (second value of cell 24 hr/48 hr)

Structure (SMILES) | FICI of combination resulting in fluconazole MIC of: 2 ug/mL (C. glabrata; C. glabrata) | FICI of combination resulting in fluconazole MIC of: 4 ug/mL (C. glabrata; C. glabrata) | FICI of combination resulting in fluconazole MIC of: 8 ug/mL (C. glabrata; C. glabrata) | FICI of combination resulting in fluconazole MIC of: 2 ug/mL (value in parenthesis) (C. glabrata; C. glabrata) | FICI of combination resulting in fluconazole MIC of: 4 ug/mL (value in parenthesis) (C. glabrata; C. glabrata) | FICI of combination resulting in fluconazole MIC of: 8 ug/mL (value in parenthesis) (C. glabrata; C. glabrata) | MIC (C. glabrata; [1]) | MIC (C. glabrata; [2]) | Multiple of compound MIC to synergize fluconazole MIC to 2 ug/mL (C. glabrata) | Multiple of compound MIC to synergize fluconazole MIC to 4 ug/mL (C. glabrata) | Multiple of compound MIC to synergize fluconazole MIC to 8 ug/mL (C. glabrata) | Concentration of Methylgene compound to synergize fluconazole MIC to 2 ug/mL (C. glabrata; C. glabrata) | Concentration of Methylgene compound to synergize fluconazole MIC to 4 ug/mL (C. glabrata; C. glabrata) | Concentration of Methylgene compound to synergize fluconazole MIC to 8 ug/mL (C. glabrata; C. glabrata) | MIC (Candida glabrata; [3]) | MIC (Candida glabrata; [4]) | MIC (Candida albicans; [3]) | MIC (Candida albicans; [4]) | MIC (Candida parapsilosis; [3]) | MIC (Candida parapsilosis; [4])
O=C(Cc1ccc(CCCC(=O)c2ccccc2)cc1)NO [Example 28, N-hydroxy-2-(4-(4-oxo-4-phenylbutyl)phenyl)acetamide] | 0.313 | 0.250 | 0.313 | 0.266 | 0.156 | 0.125 | 16 µg/mL | 16 µg/mL | (¼x) | (⅛x) | ( 1/16x) | 4 µg/mL | 2 µg/mL | 1 µg/mL | 8 µg/mL (≈ 26.9 µM) | 16 µg/mL (≈ 53.8 µM) | 32 µg/mL (≈ 108 µM) | 32 µg/mL (≈ 108 µM) | > 32 µg/mL | > 32 µg/mL
O=C(Cc1ccc(CCCC(F)(F)c2ccccc2)cc1)NO [Example 29, 2-(4-(4,4-difluoro-4-phenylbutyl)phenyl)-N-hydroxyacetamide] | 0.563 | 0.625 | 0.500 | 0.516 | 0.531 | 0.313 | 1 µg/mL | 1 µg/mL | (½x) | (½x) | (¼x) | 0.5 µg/mL | 0.5 µg/mL | 0.25 µg/mL | 0.5 µg/mL (≈ 1.57 µM) | 1 µg/mL (≈ 3.13 µM) | 1 µg/mL (≈ 3.13 µM) | 2 µg/mL (≈ 6.26 µM) | 1 µg/mL (≈ 3.13 µM) | 2 µg/mL (≈ 6.26 µM)
CC(CCCc1ccc(CC(=O)NO)cc1)c1ccccc1 (stereo not shown) [Example 30, N-hydroxy-2-(4-(4-phenylpentyl)phenyl)acetamide] | 0.563 | 0.365 | 0.490 | 0.516 | 0.271 | 0.303 | 0.5 µg/mL | 0.5 µg/mL | (½x) | (¼x) | (¼x) | 0.25 µg/mL | 0.12 µg/mL | 0.12 µg/mL | 0.25 µg/mL (≈ 0.841 µM) | 0.5 µg/mL (≈ 1.68 µM) | 0.5 µg/mL (≈ 1.68 µM) | 0.5 µg/mL (≈ 1.68 µM) | 0.12 µg/mL (≈ 0.403 µM) | 0.25 µg/mL (≈ 0.841 µM)
Nc1ccc(CCCCc2ccc(CC(=O)NO)cc2)cc1 [Example 31, 2-(4-(4-(4-aminophenyl)butyl)phenyl)-N-hydroxyacetamide] | 0.375 | 0.500 | 0.625 | 0.266 | 0.281 | 0.188 | 4 µg/mL | 4 µg/mL | (¼x) | (¼x) | (⅛x) | 1 µg/mL | 1 µg/mL | 0.5 µg/mL | > 8 µg/mL | > 8 µg/mL | > 16 µg/mL | > 16 µg/mL | > 16 µg/mL | > 16 µg/mL

Second part, the compound after the results:

FICI of combination resulting in fluconazole MIC of: 2 ug/mL (C. glabrata; C. glabrata) | FICI of combination resulting in fluconazole MIC of: 4 ug/mL (C. glabrata; C. glabrata) | FICI of combination resulting in fluconazole MIC of: 8 ug/mL (C. glabrata; C. glabrata) | FICI of combination resulting in fluconazole MIC of: 2 ug/mL (value in parenthesis) (C. glabrata; C. glabrata) | FICI of combination resulting in fluconazole MIC of: 4 ug/mL (value in parenthesis) (C. glabrata; C. glabrata) | FICI of combination resulting in fluconazole MIC of: 8 ug/mL (value in parenthesis) (C. glabrata; C. glabrata) | MIC (C. glabrata; [1]) | MIC (C. glabrata; [2]) | Multiple of compound MIC to synergize fluconazole MIC to 2 ug/mL (C. glabrata) | Multiple of compound MIC to synergize fluconazole MIC to 4 ug/mL (C. glabrata) | Multiple of compound MIC to synergize fluconazole MIC to 8 ug/mL (C. glabrata) | Concentration of Methylgene compound to synergize fluconazole MIC to 2 ug/mL (C. glabrata; C. glabrata) | Concentration of Methylgene compound to synergize fluconazole MIC to 4 ug/mL (C. glabrata; C. glabrata) | Concentration of Methylgene compound to synergize fluconazole MIC to 8 ug/mL (C. glabrata; C. glabrata) | MIC (Candida glabrata; [3]) | MIC (Candida glabrata; [4]) | MIC (Candida albicans; [3]) | MIC (Candida albicans; [4]) | MIC (Candida parapsilosis; [3]) | MIC (Candida parapsilosis; [4]) | Structure (SMILES)
0.625 | 0.500 | 0.625 | 0.516 | 0.281 | 0.188 | 2 µg/mL | 2 µg/mL | (½x) | (¼x) | (⅛x) | 1 µg/mL | 0.5 µg/mL | 0.25 µg/mL | > 32 µg/mL | > 32 µg/mL | 32 µg/mL (≈ 107 µM) | 32 µg/mL (≈ 107 µM) | 32 µg/mL (≈ 107 µM) | 32 µg/mL (≈ 107 µM) | Nc1cccc(CCCCc2ccc(CC(=O)NO)cc2)c1 [Example 32, 2-(4-(4-(3-aminophenyl)butyl)phenyl)-N-hydroxyacetamide]
0.313 | 0.375 | 0.500 | 0.266 | 0.281 | 0.313 | 8 µg/mL | 8 µg/mL | (¼x) | (¼x) | (¼x) | 2 µg/mL | 2 µg/mL | 2 µg/mL | 4 µg/mL (≈ 13.4 µM) | 8 µg/mL (≈ 26.8 µM) | 8 µg/mL (≈ 26.8 µM) | 16 µg/mL (≈ 53.6 µM) | 8 µg/mL (≈ 26.8 µM) | 16 µg/mL (≈ 53.6 µM) | Nc1ccccc1CCCCc1ccc(CC(=O)NO)cc1 [Example 33, 2-(4-(4-(2-aminophenyl)butyl)phenyl)-N-hydroxyacetamide]
0.375 | 0.375 | 0.625 | 0.266 | 0.156 | 0.188 | 8 µg/mL | 8 µg/mL | (¼x) | (⅛x) | (⅛x) | 2 µg/mL | 1 µg/mL | 1 µg/mL | > 64 µg/mL | > 64 µg/mL | > 64 µg/mL | > 64 µg/mL | > 64 µg/mL | > 64 µg/mL | CN1CCC(C(=O)Nc2ccc(CCCCc3ccc(CC(=O)NO)cc3)cc2)CC1.Cl [Example 34, N-(4-(4-(4-(2-(hydroxyamino)-2-oxoethyl)phenyl)butyl)phenyl)-1-methylpiperidine-4-carboxamide hydrochloride]
0.375 | 0.500 | 0.625 | 0.266 | 0.281 | 0.188 | 4 µg/mL | 4 µg/mL | (¼x) | (¼x) | (⅛x) | 1 µg/mL | 1 µg/mL | 0.5 µg/mL | 64 µg/mL (≈ 140 µM) | > 64 µg/mL | 64 µg/mL (≈ 140 µM) | 64 µg/mL (≈ 140 µM) | 64 µg/mL (≈ 140 µM) | 64 µg/mL (≈ 140 µM) | COCCOCCOCC(=O)Nc1ccc(CCCCc2ccc(CC(=O)NO)cc2)cc1 [Example 35, N-hydroxy-2-(4-(4-(4-(2-(2-(2-methoxyethoxy)ethoxy)acetamido)phenyl)butyl)phenyl)acetamide]
